For assay [1], the system named is HCC1806 mouse tumor xenograft. Put plainly: HCC1806 tumor model (mouse xenograft). Type of assay: in vivo. The conditions noted are these: NU/NU female mice, 30 mpk PO BID, 50 mpk PO BID and 75 mpk PO BID, 14 days. As for the experimental part:
Source: HCC1806 (#CRL 2335, ATCC, Manassas, Va.)
The HCC1806 tumor cell line was cultured in RPM11640 media supplemented with 10% Fetal Bovine Serum (FBS). To establish a HCC1806 xenograft model, 5×10^6 cells per mouse were implanted subcutaneously into right hind flank NU/NU female mice. Cells were suspended in 50% Cultrex Basement Membrane Extract and 50% RPMI 1640 media serum free media prior to implantation.
Animals were randomized 7 days after cells implantation with each group consisting of 13 mice. Treatment began when tumors reached 100 mm^3 to 170 mm^3 in size on Day 7. Test compounds were prepared in 0.1% Tween, 0.5% Methyl cellulose in water and dosed PO at 30, 50, and 75 mg/kg as a suspension BID for 14 days. Mice receiving no drugs were given vehicle BID for 14 days. Tumor volumes were measured twice a week with an electric caliper, with tumor volumes calculated using Length×Width×Width/2 formula. Animal weights were recorded twice weekly.

For another assay, the target named is CDK6/Cyclin D1 (Homo sapiens (Human), UniProt Q00534). As to the kind of experiment: biochemical.
Chain of CDK6/Cyclin D1 (Q00534 whole entry): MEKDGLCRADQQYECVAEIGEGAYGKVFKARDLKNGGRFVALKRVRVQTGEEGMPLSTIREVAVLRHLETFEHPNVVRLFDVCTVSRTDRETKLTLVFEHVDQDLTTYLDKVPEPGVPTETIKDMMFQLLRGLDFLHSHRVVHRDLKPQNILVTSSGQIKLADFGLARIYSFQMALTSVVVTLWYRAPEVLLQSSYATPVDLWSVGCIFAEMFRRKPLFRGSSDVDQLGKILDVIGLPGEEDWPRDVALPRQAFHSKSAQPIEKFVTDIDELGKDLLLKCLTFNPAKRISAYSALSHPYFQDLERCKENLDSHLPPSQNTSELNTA
Chain of CDK6/Cyclin D1 (P24385 whole entry partner): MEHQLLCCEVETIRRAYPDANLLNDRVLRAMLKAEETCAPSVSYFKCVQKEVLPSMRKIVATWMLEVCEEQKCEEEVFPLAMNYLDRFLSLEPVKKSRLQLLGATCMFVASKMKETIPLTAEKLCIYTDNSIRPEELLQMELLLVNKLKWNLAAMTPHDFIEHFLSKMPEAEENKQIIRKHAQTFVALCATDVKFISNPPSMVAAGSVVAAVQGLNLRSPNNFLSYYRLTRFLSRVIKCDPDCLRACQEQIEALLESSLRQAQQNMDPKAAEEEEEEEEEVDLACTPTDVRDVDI

`C[C@@]1(O)CCC[C@H]1n1c(=O)ccc2cnc(NC3CCN(S(C)(=O)=O)CC3)nc21` [Example 2, 8-[(1R,2R)-2-hydroxy-2-methylcyclopentyl]-2-{[1-(methylsulfonyl)piperidin-4-yl]amino}pyrido[2,3-d]pyrimidin-7(8H)-one]: the “inhibition of tumor growth (mm^3)” value in assay [1] was “dose dependent inhibition of tumor growth”.
Broadly, the Ki is the equilibrium dissociation constant of an inhibitor or competing ligand from its target. On CDK6/Cyclin D1, `C[C@]1(O)CCCC1n1c(=O)ccc2cnc(NC3CCN(S(=O)(=O)C(F)(F)F)CC3)nc21` (single isomer, unassigned) [Example 89] displayed an inhibition constant Ki of 11.3 nM.
